The record followed here is patent US11479536B1 (King Abdulaziz University, priority 2022, dated 2022).

The test system of one series is AMPK (phospho-protein). Kind of series: Phosphoproteome array test, phospho-AMPK signal in lysates of treated HL-60 cells. Format: cell-based, human. As to the method:
The phosphorylation profile of AMPK kinase (among other 37 kinases) was performed using the Proteome Profiler Human Phospho-Kinase Antibody Array Kit by R&D Systems (Minneapolis, Minn., USA) according to the protocol. Briefly, the total cellular protein was extracted using the Lysis buffer and was quantified using Bio-Rad DC Protein Assay kit (Hercules, Calif., USA). Nitrocellulose membrane set (A&B), pre-spotted with kinase-specific capture antibodies, were first blocked with Array Buffer-1 at RT for 30 min on a rocking platform shaker. Approximately 600 μg of protein concentrate was diluted in the buffer provided and was added onto the membrane set, and the membranes were incubated overnight at 4° C. in an 8-well plate. Subsequently, membranes were washed with Wash Buffer and incubated with appropriate Detection Antibody cocktails for 2 h at RT. Streptavadin-HRP (1:2000) was added onto membranes and incubated for 30 min at RT. Membranes were washed, and Chemiluminescent Detection Reagents 1&2 were applied in equal volumes for detection. The signals were detected on C-DiGit® Blot Scanner (LI-COR, Odyssey Imaging Systems, Lincoln, Nebr., USA) using Image Studio 5.0 software.

The subject of series [1] is MCF7 spheroids. Kind of series: Mitochondrial membrane potential assay (JC-1), MCF7 spheroids. In kind it is cell-based, human. As to conditions: 48 h post treatment at IC50, control 18.01±0.58%. How it is done: (§1) The mitochondrial membrane potential was investigated in response to the treatment with MAK compounds. This assay depends on the measurement of the aggregate fluorescence for Tetraethylbenzimidazolylcarbocyanine iodide (JC-1). This cationic dye accumulates in the energized mitochondria, and the increase in aggregate fluorescence indicates mitochondrial […] while the reduction indicates the depolarization state.
(§2) After growing the cells and treating them with MAK compound for 48 hours, 2 μM of JC-1 final concentration was added and the mixture was incubated for 1 hour at 37° C. in presence of 5% CO2. Then, the samples were analyzed using flow cytometry. Mean values and standard deviation of replicates were calculated in comparison to the control group.

Series [2] relates to T47D spheroids. Kind of series: Mitochondrial membrane potential assay (JC-1), T47D spheroids. In kind it is cell-based, human. Conditions: 48 h post treatment at IC50, control 15.67±2.05%. How it is done:
as §1, §2

In series [3] the test system is MCF7 spheroids. Kind of series: Live and dead assay of tumor spheroids, MCF7. Format: cell-based, human. Conditions: 48 h post treatment, control 10.33±2.40%. As to the method: (§3) The Live/Dead assay contains a mixture of two staining fluorescent dyes that label live and dead cells to enable differentiation between them. The cell viability of the cells in response to the treatment with MAK compounds was examined. The cells were grown for 48 hours and treated with MAK compound for additional 48 hours, then Cytox RED solution reagent was added. After incubation at 37° C. under 5% CO2 for 1 hour, the samples were immediately analyzed by flow cytometry. Mean values and standard deviation of replicates were calculated in comparison to the control group.

For series [4], the system named is T47D spheroids. Kind of series: Live and dead assay of tumor spheroids, T47D. In kind it is cell-based, human. Conditions: 48 h post treatment, control 2.60±0.31%. As to the method:
as §3

The subject of series [5] is T47D spheroids. Kind of series: Reactive oxygen species (CellROX) assay, T47D spheroids. Format: cell-based, human. As to conditions: 48 h treatment, CellROX Green. How it is done: The CELLROX (Invitrogen) assay was used to measure the level of reactive oxygen species (ROS) in live cells. […] The technique was used to investigate the capability of tested compounds to induce intracellular ROS. After forming the spheroids for 48 hours and treating them for additional 48 hours with MAK compound, spheroids were incubated in culture medium with 500 nM CellROX for 60 minutes at 37° C. in presence of 5% CO2, and the samples were immediately analyzed on flow cytometry using 488-nm excitation for the CellROX® Green.

For the next series, the target named is T1, CYP2D6 (Homo sapiens, UniProt P10635).
T1 construct: purchased Fisher Scientific; host or cells: insect supersomes
T1 sequence (P10635 whole entry): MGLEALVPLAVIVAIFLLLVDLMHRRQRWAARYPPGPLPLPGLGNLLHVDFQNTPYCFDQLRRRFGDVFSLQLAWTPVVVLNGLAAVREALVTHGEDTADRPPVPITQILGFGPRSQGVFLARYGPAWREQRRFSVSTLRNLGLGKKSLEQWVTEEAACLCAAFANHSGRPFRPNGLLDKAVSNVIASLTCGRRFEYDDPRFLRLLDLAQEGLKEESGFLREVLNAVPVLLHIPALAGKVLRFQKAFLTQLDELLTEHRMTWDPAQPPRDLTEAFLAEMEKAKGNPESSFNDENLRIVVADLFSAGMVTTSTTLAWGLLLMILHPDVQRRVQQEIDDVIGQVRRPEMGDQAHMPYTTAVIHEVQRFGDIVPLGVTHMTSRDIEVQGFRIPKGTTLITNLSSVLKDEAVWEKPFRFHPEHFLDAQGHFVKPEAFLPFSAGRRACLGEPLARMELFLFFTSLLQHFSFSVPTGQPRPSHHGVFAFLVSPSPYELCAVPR
Kind of series: Inhibition assay of human CYP450 enzymes, 2D6. In kind it is in vitro ADME. How it is done:
The two compounds MAK-1 and MAK-6 were assessed for its ability to inhibit the three major human CYP450 enzymes, 3A4, 2D6 and 2C9. Assays were run in triplicate. Expressed enzymes in insect supersomes (Fisher Scientific, Waltham, Mass.) were used to minimize non-specific binding and membrane partitioning issues (McMasters et al., 2007). The 3A4 assay uses testosterone as a substrate and analysis was performed by LC/MS/MS on a Waters Xevo TQ instrument as described above using positive electrospray ionization. Assay acceptance criteria was 20% for all standards and 25% for the LLOQ. The 2D6 and 2C9 assays use fluorescent substrates (3-[2-(N,N-diethylamino)ethyl]-7-methoxy-4-methylcoumarin for 2D6; 7-methoxy-4-(trifluoromethyl)coumarin for 2C9) and were analyzed on an Envision plate reader. GraphPad® Prism v 5.04 was used for nonlinear fitting of data to generate IC50 values.

Series [6] can be described thus: Binding to mouse plasma proteins (equilibrium dialysis). In kind it is in vitro ADME. As to conditions: CD-1, pH 7.4, 37° C., read-out: free, unbound fraction in mouse plasma. How it is done: The equilibrium dialysis method for determining plasma protein binding was performed as previously described using 96-well dialyzer plates with molecular weight cutoff of 5K (Harvard Apparatus, Holliston, Mass.) and a dual-plate rotator set to maximum speed (Harvard Apparatus, Holliston, Mass.) located in a 37° C. incubator with a 10% CO2-atmospheric environment. Assays were run in triplicate. The test compounds were added to CD-1 mouse plasma (Innovative Research, Novi, Mich., sodium heparin added as anticoagulant; pH adjusted to 7.4 with 2N HCl on day of use) in DMSO (final DMSO concentration 0.4%) to give 10 μM final concentration. Drug/plasma mixture and buffer (Dulbecco's phosphate-buffered saline 1× without calcium and magnesium, Mediatech, Inc., Herndon, Va.) were placed in their respective sides, wells were capped, and the plate was placed in the rotator and allowed to dialyze for 22 h. Following dialysis, aliquots of buffer and plasma mixture were removed and mixed with aliquots of the opposite matrix in 96-well deep plates. Concentrations of analytes from each side of the dialysis plate were determined by LC/MS/MS on a Waters Xevo TQ instrument as described above using positive electrospray ionization. […] The fraction unbound was calculated by dividing the drug concentration in the buffer side of the dialysis plate by the drug concentration in the plasma side.
(In general: In equilibrium dialysis only unbound substance equilibrates across the membrane.)

As to `COc1cccc(C(=O)Nc2ccc(CC(=O)NCc3ccccc3)cc2)c1` [MAK-1, N-(4-(2-(benzylamino)-2-oxoethyl)phenyl)-3-methoxybenzamide], the “decrease of phospho-protein AMPK existence” value with AMPK (phospho-protein) (compound at 6 μM) stood at 61.8%. Besides, the “depolarized cells (mitochondrial membrane), mean±SEM” value in the series on MCF7 spheroids [1] came to 24.77±0.65%; with T47D spheroids [2] it was 36.77±1.17%. For the same compound, the “dead rate (dead cells), mean±SEM” value with MCF7 spheroids [3] was determined as 36.33±0.88%; in the series with T47D spheroids [4], 42.43±0.49%. For the same compound, in the series on T47D spheroids [5], the “ROS level, treatment vs control” value worked out at 4%. In addition, on CYP2D6 (concentrations up to 10 μM), the “inhibition of CYP2D6” value is “no inhibition”. Further, the fraction unbound at 22 h, 10 μM in series [6] was 0.083.
Take `O=C(Cc1ccc(NC(=O)c2cccc(Cl)c2)cn1)NCc1ccccc1` [MAK-6, N-(6-(2-(benzylamino)-2-oxoethyl)pyridin-3-yl)-3-chlorobenzamide]: the “decrease of phospho-protein AMPK existence” value in the series with AMPK (phospho-protein) (compound at 8 μM) was determined as 92.1%. In addition, the entries for the “depolarized cells (mitochondrial membrane), mean±SEM” value in the series on MCF7 spheroids [1] and in the series with T47D spheroids [2] were 28.73±0.82% and 32.77±0.54%, respectively. Besides, the “dead rate (dead cells), mean±SEM” value worked out at 34.27±0.49% in the series on MCF7 spheroids [3] and 37.97±0.27% in the series with T47D spheroids [4]. Further, the “ROS level, treatment vs control” value in the series with T47D spheroids [5] amounted to 6%. Besides, the “inhibition of CYP2D6” value on CYP2D6 (concentration not given) is given as “did not display any inhibitory activity”. Moreover, the fraction unbound at 22 h, 10 μM in series [6] was determined as 0.087.

For orientation: fraction unbound means the share of the substance not bound to proteins or other matrix.
